We go through 13 molecules from patent US20250066287A1, “PHASE CHANGE AROMATIC AZO COMPOUNDS, METHOD OF MANUFACTURE, AND USE AS HOMOGENOUS CATALYST” (priority 2023, published 2025).

The conditions of series [1]: pristine azobenzene; cited from earlier work.
A short description of series [2]: Solvent screening for reversible solubility changes. The note with it: 0.5 mg in 1 mL; irradiation of 340 nm and 430 nm. Here is the method: To determine solubility, 0.5 mg of compounds were added to 1 mL of common solvents (1-MeOH, 2-acetonitrile (MeCN), 3-acetone, 4-THF, 5-hexane, 6-EtOAc, 7-DMF, 8-DMSO, and 9-toluene, respectively). […] The samples with suspensions were then stirred overnight under 340 nm irradiation. […] These samples were then stirred for 4 hours under 430 nm to trigger the precipitation of the compounds.

Series [3] can be described thus: Quantification of solubility of E and Z isomers in select solvents. As to conditions: for Isomer (% E): saturated solution after 340 nm irradiation.
Experimental: Quantification of solubility. […] The mixtures were sonicated for 5 min. The obtained suspensions were filtered with a PTFE filter to remove the excess solids. The solvents in clear filtrates were removed using a rotary evaporator and the solutes were dried under vacuum overnight.
wherein [Z]max and [E]max are the maximum concentration of the Z-isomer and the E-isomer, respectively.
Series [4] in a line: Photoswitching between E and Z (UV-vis, photostationary state). The series is classed as physicochemical. The note with it: dilute solution; compound 1 in acetonitrile, compound 2 in methanol. Here is the method: To find solvents in which the ratio between the maximum concentrations of Z and E isomers at the respective photostationary state (PSS) (i.e., r=[Z]max/[E]max) is the greatest, a solvent screening test for each compound was performed (FIGS. 21-24).
Ultraviolet-visible (UV-Vis) absorption spectra were obtained with a Cary 50 Bio UV-Vis spectrophotometer in a UV Quartz cuvette with a path length of 10 mm. Compounds were dissolved in solvents at a concentration of 0.0125 mg/ml unless otherwise specified. The UV-Vis absorption was first recorded in dark for 5 min, then samples were irradiated with a specified wavelength until no change in their absorbance was observed. Samples were irradiated with Thorlabs LEDs: M340L4 (340 nm, 2.22 μW/mm^2, 60 mW), M430L4 (430 nm, 35.3 μW/mm^2, 600 mW).

A short description of series [5]: Absorption coefficient of reactants, products and catalysts (UV-Vis). The series is classed as physicochemical. Here is the method: Ultraviolet-visible (UV-Vis) absorption spectra were obtained with a Cary 50 Bio UV-Vis spectrophotometer in a UV Quartz cuvette with a path length of 10 mm. Compounds were dissolved in solvents at a concentration of 0.0125 mg/ml unless otherwise specified. The UV-Vis absorption was first recorded in dark for 5 min, then samples were irradiated with a specified wavelength until no change in their absorbance was observed. Samples were irradiated with Thorlabs LEDs: M340L4 (340 nm, 2.22 μW/mm^2, 60 mW), M430L4 (430 nm, 35.3 μW/mm^2, 600 mW). […]

A short description of series [6]: Light-induced precipitation of catalysts from pristine solvent. The series is classed as physicochemical. As to conditions: within 10 min of 430 nm irradiation; 1 in acetonitrile, 2 in methanol. As to the method: FIG. 6 and FIG. 25 illustrate the efficiencies of 430 nm induced catalyst precipitation and recovery for compounds 1 and 2, which were obtained by weighing the filtered precipitates after irradiation. […] The full recovery of the catalysts is limited by the PSS ratios of compounds at 430 nm (82% for 1- E and 84% for 2-E).
Light-induced precipitation of catalysts. To determine light-induced precipitation of catalysts, 44 mg of compound 1 and 34 mg of compound 2 were added to 2 mL of acetonitrile and methanol, respectively. The suspensions were irradiated at 340 nm overnight to obtain clear Z solutions. Then, the solutions were irradiated at 430 nm and monitored over 10 min.

Series [7] in a line: Thermal reversion kinetics measurements (Z-to-E). As to conditions: 1 in MeCN, 2 in MeOH; for τ1/2 (thermal half-life of Z isomer): Z-to-E thermal reversion at 298 K (room temperature); for ΔG^‡ / ΔH^‡ / ΔS‡: thermal isomerization of Z isomers at 298 K. It is filed as physicochemical. As to the method:
Thermal reversion kinetics measurements. The thermal half-life of compounds 1 and 2 were determined by following a reported procedure (G. D. Han, et all., J. Mater. Chem. A 2016, 4, 16157-16165). A solution of compounds 1 or 2 (˜1.7×10^−5 M) were prepared in MeCN and MeOH, respectively, then irradiated at 340 nm to obtain a Z-rich solution at photostationary state (PSS), which was then heated at three different elevated temperatures (compound 1: 333 K, 338 K, 343 K; compound 2: 318 K, 323 K, 328 K) in dark.

Series [8] in a line: Kinetic tests of Henry reaction. The note with it: for product yield: pre-activated Z, 24 hours; for rate constant kZ: pre-activated soluble Z.
The conditions of series [9]: Michael addition in acetonitrile; in 10 hours.
Experimental: For compound 1: To a solution of trans-β-nitrostyrene (11.1 mg, 7.5 μmol) and acetylacetone (7.6 mg, 7.5 μmol) in MeCN (0.25 mL) was added either insoluble E isomer or pre-activated Z isomer of compound 1 (5.4 mg, 0.75 μmol). Three identical samples were prepared. 0.2 mL of the solution was taken to check the product yield via ^1H NMR at each time point.
Series [10] can be described thus: Cycling tests of Michael addition reaction. As to conditions: Michael addition in acetonitrile; after the subsequent two reactions with recovered catalyst, 10 mol % loading.
A short description of series [11]: Cycling tests of Henry reaction. As to conditions: acetonitrile.
[12] abbreviates: MeOH, Z-rich after 340 nm irradiation overnight.
Setting [13] is: EtOAc, Z-rich after 340 nm irradiation overnight.
[14] abbreviates: MeCN, Z-rich after 340 nm irradiation overnight.
Where [15] appears, read: Toluene, Z-rich after 340 nm irradiation overnight.
The mark [16] stands for this setting: Henry reaction, 1 in acetonitrile, 2 in methanol.

Where “and” joins values, the source holds several entries; their conditions need not be identical. Equal values may be shown once. Read-outs that look alike come from different tables or passages of the source.

For `c1ccc(N=Nc2ccccc2)cc1` [azobenzene], the “% E at 430 nm (photoswitching property)” value in series [1] is 83 % E.
As usually defined, the Solubility is how much of the substance goes into solution per volume. With `CN(CCCNC(=O)c1ccc2cc(C(=O)NCCCN(C)CCc3ccc(N=Nc4ccccc4)cc3)ccc2c1)CCc1ccc(N=Nc2ccccc2)cc1` [Compound 3], the “ideal solvent candidates for reversible solubility changes” value in series [2] was “MeOH and acetone”. For the same molecule, the results for the “r=[Z]max/[E]max” value in [3] (Acetone) and in [3] (MeOH (methanol)) were 5.7 and 4.0, respectively. Moreover, the Solubility in [3] (Acetone, E isomer (100% E)) was 3.8 g/L and 4.9 mM; in series [3] (MeOH, E isomer (100% E)), 3.9 g/L and 5.0 mM; in series [3] (setting [12]), 16 g/L and 20 mM. For the same molecule, the “Isomer (% E)” value in series [3] (Acetone) amounted to 14 % E; in [3] (MeOH), 27 % E.
As to `CN(CCCNC(=O)c1ccc(C(=O)NCCCN(C)CCc2ccc(/N=N/c3ccccc3)cc2)cc1)CCc1ccc(/N=N/c2ccccc2)cc1` [Compound 1-E], the “% E after irradiation at 430 nm (PSS)” value in series [4] was determined as 82 % E. In series [5] (MeCN), the ε340 nm is 24004 M⁻¹ cm⁻¹ and 24004.3 M⁻¹ cm⁻¹; the ε430 nm stood at 2336.5 M⁻¹ cm⁻¹.
Take `CN(CCCNC(=O)c1ccc(-c2ccc(C(=O)NCCCN(C)CCc3ccc(N=Nc4ccccc4)cc3)cc2)cc1)CCc1ccc(N=Nc2ccccc2)cc1` [Compound 2]: the “ideal solvent candidates for reversible solubility changes” value in series [2] is “MeOH and EtOAc”. In [4], the “% E after irradiation at 430 nm (PSS)” value is on record as 84 % E and the “% Z after irradiation at 340 nm (PSS)” value is recorded as 84 % Z. The “% Z drop in the suspension” value in series [6] was found to be 75%. In [7], the “τ1/2 (thermal half-life of Z isomer)” value is 84 h, the “ΔG^‡” value amounted to 25.14 kcal/mol, the “ΔH^‡” value came out at 18 kcal/mol and the “ΔS‡” value is given as −99.7 J mol^−1K^−1. Further, in [8], the “rate constant kE-UV” value is 1.16×10 ^−5 s^−1. Also, in series [3] (EtOAc), the “r=[Z]max/[E]max” value worked out at 6.0 and the “Isomer (% E)” value is on record as 14 % E. The Solubility in series [3] (EtOAc, E isomer (100% E)) was 2.4 g/L and 3.0 mM. Besides, the Solubility in [3] (setting [13]) is 14 g/L and 18 mM. In addition, the “r=[Z]max/[E]max” value in [3] (MeOH (methanol)) is given as 8.8. In addition, in [3] (MeOH, E isomer (100% E)), the Solubility is 1.9 g/L and 2.4 mM. In [3] (setting [12]), the Solubility is 17 g/L and 21 mM. In addition, the “Isomer (% E)” value in [3] (MeOH) was determined as 16 % E.
`O=Cc1ccc([N+](=O)[O-])cc1` [Nitrobenzaldehyde, 4-nitrobenzaldehyde]: the ε340 nm in series [5] (MeCN) was 323.3 M⁻¹ cm⁻¹; in series [5] (MeCN, listed as 4-nitrobenzaldehyde), 323 M⁻¹ cm⁻¹; in series [5] (MeOH), 312.5 M⁻¹ cm⁻¹.
With `O=[N+]([O-])/C=C/c1ccccc1` [Nitrostyrene, trans-β-nitrostyrene], the ε340 nm in series [5] (MeCN) is 11327.3 M⁻¹ cm⁻¹; in series [5] (MeCN, listed as trans-β-nitrostyrene) it was 11327 M⁻¹ cm⁻¹; in series [5] (MeOH), 15390.7 M⁻¹ cm⁻¹.
For `CC[N+](=O)[O-]` [Nitroethane, nitroethane], the ε340 nm was determined as 0.3 M⁻¹ cm⁻¹ in [5] (MeCN) and 1.3 M⁻¹ cm⁻¹ in series [5] (MeOH).
The matching figures for `CC(=O)CC(C)=O` [Acetylacetone, acetylacetone]: 2.4 M⁻¹ cm⁻¹ and 31.1 M⁻¹ cm⁻¹.
On to `CN(CCCNC(=O)c1ccc(C(=O)NCCCN(C)CCc2ccc(N=Nc3ccccc3)cc2)cc1)CCc1ccc(N=Nc2ccccc2)cc1` [Compound 1], for which, in series [2], the “ideal solvent candidates for reversible solubility changes” value was “MeCN and toluene”. Further, the “% E after irradiation at 430 nm (PSS)” value in series [4] worked out at 82 % E. Also, the “% Z after irradiation at 340 nm (PSS)” value in series [4] is approximately 88 % Z. Also, the “% Z drop in the suspension” value in [6] stood at 75%. The “τ1/2 (thermal half-life of Z isomer)” value in [7] amounted to 199 h. Besides, the “ΔG^‡” value in series [7] turned out to be 25.67 kcal/mol. In series [7], the “ΔH^‡” value came out at 23.97 kcal/mol. The “ΔS‡” value in series [7] is −23.8 J mol^−1K^−1. The “product yield of Z-rich catalyst compared to its E counterpart” value in [9] turned out to be 2.4 fold. In series [10], this molecule gave a product yield of 82%. The “% Z by in-situ UV-induced E→Z isomerization in the reaction medium” value in series [8] (Henry reaction mixture in acetonitrile, after 24-hour 340 nm irradiation) was determined as 48 % Z. For the same molecule, in series [8] (Henry reaction, in-situ UV (340 nm) activated catalyst, 1 in acetonitrile, 2 in methanol), the “rate constant kE-UV” value was 4.24e-06 s⁻¹. The yield of product in series [11] (1st Henry reaction (16 hours)) came out at 56%; in [11] (2nd Henry reaction (16 hours)) it was 57%; in [11] (third Henry reaction (24 hours)) it was 70%. In addition, the “r=[Z]max/[E]max” value in series [3] (MeCN (acetonitrile)) was 10.4 and 10.3; in series [3] (Toluene) it was 2.8. Also, the Solubility was 2.1 g/L and 2.9 mM in series [3] (MeCN, E isomer (100% E)); 22 g/L and 30 mM in series [3] (setting [14]); 5.4 g/L and 7.5 mM in series [3] (Toluene, E isomer (100% E)); 15 g/L and 21 mM in [3] (setting [15]). In addition, the “Isomer (% E)” value in series [3] (MeCN) came out at 12 % E; in series [3] (Toluene), 17 % E.
As to `CN(CCCNC(=O)c1ccc(C(=O)NCCCN(C)CCc2ccc(/N=N\c3ccccc3)cc2)cc1)CCc1ccc(/N=N\c2ccccc2)cc1` [Compound 1-Z], the “τ1/2 (thermal half-life of Z isomer)” value in [7] is 199 h. Also, in [8] (setting [16]), the product yield entry is “about 70%” and the “rate constant kZ” value turned out to be 1.37e-05 s⁻¹. In series [5] (MeCN), this molecule had a ε340 nm of 6780.1 M⁻¹ cm⁻¹ and a ε430 nm of 2857.4 M⁻¹ cm⁻¹.
Take `CN(CCCNC(=O)CCCC#CC#CCCCC(=O)NCCCN(C)CCc1ccc(N=Nc2ccccc2)cc1)CCc1ccc(N=Nc2ccccc2)cc1` [Compound 4]: in [2], the “ideal solvent candidates for reversible solubility changes” value is reported as “no solvent is ideal”. Further, the “r=[Z]max/[E]max” value is 9.4 in series [3] (EtOAc), 10.0 in series [3] (MeCN (acetonitrile)) and 13.9 in [3] (Toluene). The Solubility is 2.6 g/L and 3.3 mM in [3] (EtOAc, E isomer (100% E)); 24 g/L and 31 mM in series [3] (setting [13]); 3.3 g/L and 4.3 mM in series [3] (MeCN, E isomer (100% E)); 33 g/L and 43 mM in series [3] (setting [14]); 2.6 g/L and 3.3 mM in [3] (Toluene, E isomer (100% E)); 36 g/L and 46 mM in series [3] (setting [15]). In addition, the “Isomer (% E)” value in series [3] (EtOAc) stood at 23 % E; in [3] (MeCN), 9 % E; in [3] (Toluene) it was 55 % E.
For `CN(CCCNC(=O)c1ccc(-c2ccc(C(=O)NCCCN(C)CCc3ccc(/N=N/c4ccccc4)cc3)cc2)cc1)CCc1ccc(/N=N/c2ccccc2)cc1` [Compound 2-E], the “% E after irradiation at 430 nm (PSS)” value in series [4] was 84 % E. In [5] (MeOH), the ε340 nm is 25623 M⁻¹ cm⁻¹ and 25623.3 M⁻¹ cm⁻¹; the ε430 nm was 2375.3 M⁻¹ cm⁻¹.
Take `CN(CCCNC(=O)c1ccc(-c2ccc(C(=O)NCCCN(C)CCc3ccc(/N=N\c4ccccc4)cc3)cc2)cc1)CCc1ccc(/N=N\c2ccccc2)cc1` [Compound 2-Z]: the “τ1/2 (thermal half-life of Z isomer)” value in series [7] amounted to 84 h. For the same molecule, in series [8] (setting [16]), the product yield is given as 85% and the “rate constant kZ” value was found to be 2.6e-05 s⁻¹. In [5] (MeOH), this molecule registered a ε340 nm of 2937.1 M⁻¹ cm⁻¹ and a ε430 nm of 3632.2 M⁻¹ cm⁻¹.
